Assay results from patent publication US11407647B2, “Synthetic caustic composition” (FLUID ENERGY GROUP LTD., priority 2017, dated 2022).
Where two headings read alike, the source gives them in different places.

What was measured:
[1] = background statement on sodium hydroxide solutions, cited from earlier work
[2] = Freezing point of caustic solutions; format: physicochemical
human skin = details: in vivo

| freezing point [2] | SMILES | freeze point (begins to freeze / will freeze) [1] | freeze point (begins to freeze / will freeze) ([1]; listed as 25% solution) | effect on human skin (human skin) |
| --- | --- | --- | --- | --- |
| – | [Na+].[OH-] [50% sodium hydroxide solution, sodium hydroxide] | 14 Celsius | – | – |
| −18 °C | [Na+].[OH-] [25 wt % NaOH, sodium hydroxide] | – | −17 Celsius | immediate burning of the skin, followed with scarring |
